Experimental data published in the supplement of paper PMC10307832.

Key:
Assay in all cases: relative viability (nuclei count vs DMSO), 5 days (fraction); higher = more cells survive
NCI-H1299 = system: NCI-H1299
Procedure, shortened: (§1)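 A single step with final 0.05% Triton X-100, 1% formaldehyde and 1 ug/ml Hoechst fixed the cells and stained nuclei 5 days after treatment. Lung cancer cell lines in 1536-well plates had been treated by pin tool the day after seeding with one drug alone or a fixed anchor-drug dose plus five library-drug doses (not always all listed) in √10 steps, and nuclei were counted on 4× images. Relative viability is the ratio of nuclei in treated wells to nuclei in vehicle wells, taken as the median of duplicate plates.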

NCI-H596 = system: NCI-H596
Procedure, shortened: as §1

NCI-H1993 = system: NCI-H1993
Procedure, shortened: as §1

EBC-1 = system: EBC-1
Procedure, shortened: as §1

LCLC-97TM1 = system: LCLC-97TM1
Procedure, shortened: as §1

NCI-H1355 = system: NCI-H1355
Procedure, shortened: as §1

IA-LM = system: IA-LM
Procedure, shortened: as §1

NCI-H322M = system: NCI-H322M
Procedure, shortened: as §1

Calu-6 = system: Calu-6
Procedure, shortened: as §1

A549 = system: A549
Procedure, shortened: as §1

UMC-11 = system: UMC-11
Procedure, shortened: as §1

NCI-H1703 = system: NCI-H1703
Procedure, shortened: as §1

NCI-H23 = system: NCI-H23
Procedure, shortened: as §1

Question: `CC(=O)O[C@@]12CO[C@@H]1C[C@H](O)[C@@]1(C)C(=O)[C@H](O)C3=C(C)[C@@H](OC(=O)[C@H](O)[C@@H](NC(=O)OC(C)(C)C)c4ccccc4)C[C@@](O)([C@@H](OC(=O)c4ccccc4)[C@H]21)C3(C)C` [Docetaxel] + C[C@]1(O)C[C@@H](c2nc(-c3ccc4ccc(-c5ccccc5)nc4c3)c3c(N)nccn32)C1 [Linsitinib] (partner 1 µM) was tested. Which relative viability (NCI-H1299; first compound 0.0002 µM) did it give?
Answer: 0.905

Question: And the relative viability (NCI-H1299; first compound 0.000632 µM)?
Answer: 0.98

Question: And the relative viability (NCI-H1299; first compound 0.002 µM)?
Answer: 0.787

Question: And the relative viability (NCI-H1299; first compound 0.006325 µM)?
Answer: 0.432

Question: And the relative viability (NCI-H1299; first compound 0.02 µM)?
Answer: 0.255

Question: And the relative viability (NCI-H596; first compound 0.0002 µM)?
Answer: 1.02

Question: And the relative viability (NCI-H596; first compound 0.000632 µM)?
Answer: 0.953

Question: What about the relative viability (NCI-H596; first compound 0.002 µM) of the same compound?
Answer: 0.754

Question: And the relative viability (NCI-H596; first compound 0.006325 µM)?
Answer: 0.761

Question: And the relative viability (NCI-H596; first compound 0.02 µM)?
Answer: 0.437

Question: What about the relative viability (NCI-H1993; first compound 0.0002 µM) of the same compound?
Answer: 0.796

Question: What about the relative viability (NCI-H1993; first compound 0.000632 µM) of the same compound?
Answer: 0.739

Question: And the relative viability (NCI-H1993; first compound 0.002 µM)?
Answer: 0.807

Question: And the relative viability (NCI-H1993; first compound 0.006325 µM)?
Answer: 0.605

Question: What about the relative viability (NCI-H1993; first compound 0.02 µM) of the same compound?
Answer: 0.488

Question: What about the relative viability (EBC-1; first compound 0.0002 µM) of the same compound?
Answer: 0.776

Question: What about the relative viability (EBC-1; first compound 0.000632 µM) of the same compound?
Answer: 0.872

Question: And the relative viability (EBC-1; first compound 0.002 µM)?
Answer: 0.204

Question: What about the relative viability (EBC-1; first compound 0.006325 µM) of the same compound?
Answer: 0.271

Question: And the relative viability (EBC-1; first compound 0.02 µM)?
Answer: 0.129

Question: And the relative viability (LCLC-97TM1; first compound 0.000632 µM)?
Answer: 0.153

Question: And the relative viability (LCLC-97TM1; first compound 0.002 µM)?
Answer: 0.155

Question: And the relative viability (LCLC-97TM1; first compound 0.006325 µM)?
Answer: 0.144

Question: What about the relative viability (LCLC-97TM1; first compound 0.02 µM) of the same compound?
Answer: 0.112

Question: What about the relative viability (NCI-H1355; first compound 0.0002 µM) of the same compound?
Answer: 0.75

Question: And the relative viability (NCI-H1355; first compound 0.000632 µM)?
Answer: 0.771

Question: And the relative viability (NCI-H1355; first compound 0.002 µM)?
Answer: 0.467

Question: And the relative viability (NCI-H1355; first compound 0.006325 µM)?
Answer: 0.297

Question: And the relative viability (NCI-H1355; first compound 0.02 µM)?
Answer: 0.188

Question: And the relative viability (IA-LM; first compound 0.0002 µM)?
Answer: 0.351

Question: And the relative viability (IA-LM; first compound 0.000632 µM)?
Answer: 0.449

Question: And the relative viability (IA-LM; first compound 0.002 µM)?
Answer: 0.112

Question: What about the relative viability (IA-LM; first compound 0.006325 µM) of the same compound?
Answer: 0.0528

Question: And the relative viability (IA-LM; first compound 0.02 µM)?
Answer: 0.042

Question: And the relative viability (NCI-H322M; first compound 0.0002 µM)?
Answer: 0.852

Question: And the relative viability (NCI-H322M; first compound 0.000632 µM)?
Answer: 0.989

Question: And the relative viability (NCI-H322M; first compound 0.002 µM)?
Answer: 0.878

Question: And the relative viability (NCI-H322M; first compound 0.006325 µM)?
Answer: 0.547

Question: What about the relative viability (NCI-H322M; first compound 0.02 µM) of the same compound?
Answer: 0.374

Question: And the relative viability (Calu-6; first compound 0.0002 µM)?
Answer: 0.819

Question: What about the relative viability (Calu-6; first compound 0.000632 µM) of the same compound?
Answer: 0.968

Question: And the relative viability (Calu-6; first compound 0.002 µM)?
Answer: 0.332

Question: What about the relative viability (Calu-6; first compound 0.006325 µM) of the same compound?
Answer: 0.142

Question: And the relative viability (Calu-6; first compound 0.02 µM)?
Answer: 0.0881

Question: And the relative viability (A549; first compound 0.0002 µM)?
Answer: 0.578

Question: And the relative viability (A549; first compound 0.000632 µM)?
Answer: 0.372

Question: What about the relative viability (A549; first compound 0.002 µM) of the same compound?
Answer: 0.0857

Question: And the relative viability (A549; first compound 0.006325 µM)?
Answer: 0.0667

Question: And the relative viability (A549; first compound 0.02 µM)?
Answer: 0.036

Question: And the relative viability (UMC-11; first compound 0.0002 µM)?
Answer: 0.982

Question: And the relative viability (UMC-11; first compound 0.000632 µM)?
Answer: 0.905

Question: What about the relative viability (UMC-11; first compound 0.002 µM) of the same compound?
Answer: 0.278

Question: What about the relative viability (UMC-11; first compound 0.006325 µM) of the same compound?
Answer: 0.237

Question: What about the relative viability (UMC-11; first compound 0.02 µM) of the same compound?
Answer: 0.183

Question: And the relative viability (NCI-H1703; first compound 0.0002 µM)?
Answer: 0.741

Question: And the relative viability (NCI-H1703; first compound 0.000632 µM)?
Answer: 1.15

Question: What about the relative viability (NCI-H1703; first compound 0.002 µM) of the same compound?
Answer: 0.258

Question: What about the relative viability (NCI-H1703; first compound 0.006325 µM) of the same compound?
Answer: 0.116

Question: What about the relative viability (NCI-H1703; first compound 0.02 µM) of the same compound?
Answer: 0.101

Question: What about the relative viability (NCI-H23; first compound 0.0002 µM) of the same compound?
Answer: 0.579

Question: What about the relative viability (NCI-H23; first compound 0.000632 µM) of the same compound?
Answer: 0.572

Question: And the relative viability (NCI-H23; first compound 0.002 µM)?
Answer: 0.465

Question: And the relative viability (NCI-H23; first compound 0.006325 µM)?
Answer: 0.22

Question: And the relative viability (NCI-H23; first compound 0.02 µM)?
Answer: 0.126

Question: Which results are given for `Cc1sc2c(c1C)C(c1ccc(Cl)cc1)=N[C@@H](CC(=O)OC(C)(C)C)c1nnc(C)n1-2` [JQ1] + CS(=O)(=O)N1CCN(Cc2cc3nc(-c4cccc5[nH]ncc45)nc(N4CCOCC4)c3s2)CC1 [Pictilisib] (partner 1 µM)?
Answer: relative viability (NCI-H1299; first compound 0.04 µM): 0.691; relative viability (NCI-H1299; first compound 0.1265 µM): 0.482; relative viability (NCI-H1299; first compound 0.4 µM): 0.219; relative viability (NCI-H1299; first compound 4 µM): 0.104; relative viability (NCI-H596; first compound 0.04 µM): 0.412; relative viability (NCI-H596; first compound 0.1265 µM): 0.395; relative viability (NCI-H596; first compound 0.4 µM): 0.477; relative viability (NCI-H596; first compound 1.265 µM): 0.365; relative viability (NCI-H596; first compound 4 µM): 0.293; relative viability (NCI-H1993; first compound 0.04 µM): 0.883; relative viability (NCI-H1993; first compound 0.1265 µM): 0.788; relative viability (NCI-H1993; first compound 0.4 µM): 0.888; relative viability (NCI-H1993; first compound 1.265 µM): 0.635; relative viability (NCI-H1993; first compound 4 µM): 0.846; relative viability (EBC-1; first compound 0.04 µM): 0.31; relative viability (EBC-1; first compound 0.1265 µM): 0.245; relative viability (EBC-1; first compound 0.4 µM): 0.15; relative viability (EBC-1; first compound 1.265 µM): 0.11; relative viability (EBC-1; first compound 4 µM): 0.156; relative viability (LCLC-97TM1; first compound 0.1265 µM): 0.28; relative viability (LCLC-97TM1; first compound 0.4 µM): 0.176; relative viability (LCLC-97TM1; first compound 1.265 µM): 0.105; relative viability (LCLC-97TM1; first compound 4 µM): 0.107; relative viability (NCI-H1355; first compound 0.04 µM): 0.429; relative viability (NCI-H1355; first compound 0.1265 µM): 0.426; relative viability (NCI-H1355; first compound 0.4 µM): 0.456; relative viability (NCI-H1355; first compound 1.265 µM): 0.334; relative viability (NCI-H1355; first compound 4 µM): 0.281; relative viability (IA-LM; first compound 0.04 µM): 0.278; relative viability (IA-LM; first compound 0.1265 µM): 0.103; relative viability (IA-LM; first compound 0.4 µM): 0.0998; relative viability (IA-LM; first compound 1.265 µM): 0.0879; relative viability (IA-LM; first compound 4 µM): 0.0786; relative viability (NCI-H322M; first compound 0.04 µM): 0.478; relative viability (NCI-H322M; first compound 0.1265 µM): 0.559; relative viability (NCI-H322M; first compound 0.4 µM): 0.439; relative viability (NCI-H322M; first compound 1.265 µM): 0.398; relative viability (NCI-H322M; first compound 4 µM): 0.358; relative viability (Calu-6; first compound 0.04 µM): 0.972; relative viability (Calu-6; first compound 0.1265 µM): 0.826; relative viability (Calu-6; first compound 0.4 µM): 0.897; relative viability (Calu-6; first compound 1.265 µM): 0.468; relative viability (Calu-6; first compound 4 µM): 0.372; relative viability (A549; first compound 0.04 µM): 0.511; relative viability (A549; first compound 0.1265 µM): 0.421; relative viability (A549; first compound 0.4 µM): 0.35; relative viability (A549; first compound 1.265 µM): 0.253; relative viability (A549; first compound 4 µM): 0.185; relative viability (UMC-11; first compound 0.04 µM): 0.724; relative viability (UMC-11; first compound 0.1265 µM): 0.664; relative viability (UMC-11; first compound 0.4 µM): 0.338; relative viability (UMC-11; first compound 1.265 µM): 0.209; relative viability (UMC-11; first compound 4 µM): 0.192; relative viability (NCI-H1703; first compound 0.04 µM): 0.234; relative viability (NCI-H1703; first compound 0.1265 µM): 0.212; relative viability (NCI-H1703; first compound 0.4 µM): 0.238; relative viability (NCI-H1703; first compound 1.265 µM): 0.21; relative viability (NCI-H1703; first compound 4 µM): 0.216; relative viability (NCI-H23; first compound 0.04 µM): 0.46; relative viability (NCI-H23; first compound 0.1265 µM): 0.453; relative viability (NCI-H23; first compound 0.4 µM): 0.447; relative viability (NCI-H23; first compound 1.265 µM): 0.162; relative viability (NCI-H23; first compound 4 µM): 0.183
